In patent US9375013B2, “Herbicidal composition” (ISHIHARA SANGYO KAISHA, LTD., priority 2013, dated 2016) one finds inhibition data, which are given here for one compound.

Format in all cases: in vivo
Experiment [1] relates to velvetleaf (Abutilon theophrasti MEDIC.). Description: Test Example 13: pot soil treatment, growth inhibition of velvetleaf. The following applies: dose 30 g/ha, 21st day after treatment, read-out: Growth inhibition rate (%) of velvetleaf, Measured value.
The subject of experiment [2] is persian speedwell (Veronica persica Poiret.). Description: Test Example 10: pot soil treatment, growth inhibition of persian speedwell. Conditions: dose 30 g/ha, 21st day after treatment, read-out: Growth inhibition rate (%) of persian speedwell, Measured value.
For experiment [3], the system named is ivy-leaved morningglory (Ipomoea hederacea (L.) Jacq.). As to the kind of experiment: Test Example 2: pot soil treatment, growth inhibition of ivy-leaved morningglory. The following applies: 22nd day after treatment, read-out: Growth inhibition rate (%) of ivy-leaved morningglory, Measured value. From the text: (§1) On the 14th day after treatment, the state of growth of the summergrass was visually observed to determine the growth inhibition rate in accordance with the following evaluation standard. The growth inhibition rate (%) (measured value) and the growth inhibition rate (%) (calculated value) calculated by the Colby's formula are shown in Table 1. Growth inhibition rate (%)=0 (equivalent to the non-treated area) to 100 (complete kill) Upland field soil was put into a 1/160,000 ha pot, and seeds of ivy-leaved morningglory (Ipomoea hederacea (L.) Jacq.) were sown. On the next day, predetermined amounts of flazasulfuron and hexazinone were diluted with water (in an amount corresponding to 300 L/ha), and applied for soil treatment by a small sprayer. On the 22nd day after treatment, the state of growth of the ivy-leaved morningglory was visually observed to determine the growth inhibition rate. The growth inhibition rate (%) (measured value) and the growth inhibition rate (%) calculated in the same manner as in Test Example 1 are shown in Table 2.

Experiment [4] has as its system shattercane (Sorghum bicolor (L.) Moench.). As to the kind of experiment: Test Example 6: pot soil treatment, growth inhibition of shattercane. Conditions: dose 30 g/ha, 22nd day after treatment, read-out: Growth inhibition rate (%) of shattercane, Measured value. From the text:
On the 14th day after treatment, the state of growth of the summergrass was visually observed to determine the growth inhibition rate in accordance with the following evaluation standard. The growth inhibition rate (%) (measured value) and the growth inhibition rate (%) (calculated value) calculated by the Colby's formula are shown in Table 1. Growth inhibition rate (%)=0 (equivalent to the non-treated area) to 100 (complete kill)
Upland field soil was put into a 1/160,000 ha pot, and seeds of shattercane (Sorghum bicolor (L.) Moench.) were sown. On the next day, predetermined amounts of flazasulfuron and hexazinone were diluted with water (in an amount corresponding to 300 L/ha), and applied for soil treatment by a small sprayer.
On the 22nd day after treatment, the state of growth of the shattercane was visually observed to determine the growth inhibition rate. The growth inhibition rate (%) (measured value) and the growth inhibition rate (%) calculated in the same manner as in Test Example 1 are shown in Table 6.

The subject of experiment [5] is field bindweed (Convolvulus arvensis L.). Description: Test Example 5: pot soil treatment, growth inhibition of field bindweed. Conditions: dose 30 g/ha, 22nd day after treatment, read-out: Growth inhibition rate (%) of field bindweed, Measured value.
Text: as §1, with “field bindweed (Convolvulus arvensis L.)” for “ivy-leaved morningglory (Ipomoea hederacea (L.) Jacq.)”, “field bindweed” for “ivy-leaved morningglory”, “5.” for “2.”

For experiment [6], the system named is common lespedeza (Lespedeza striata (Thunb.) Hook. et Arn.). As to the kind of experiment: Test Example 12: pot soil treatment, growth inhibition of common lespedeza. Conditions: Kummerowia striata, dose 30 g/ha, 21st day after treatment, read-out: Growth inhibition rate (%) of common lespedeza, Measured value.
Text: as §1, with “common lespedeza (Lespedeza striata (Thunb.) Hook. et Arn.)” for “ivy-leaved morningglory (Ipomoea hederacea (L.) Jacq.)”, “imazapic” for “hexazinone”, “21st” for “22nd”, “common lespedeza” for “ivy-leaved morningglory”, “12.” for “2.”

The subject of experiment [7] is guinea grass (Panicum maximum Jacq.). As to the kind of experiment: Test Example 4: pot soil treatment, growth inhibition of guinea grass. The following applies: Megathyrsus maximus, dose 10 g/ha, 22nd day after treatment, read-out: Growth inhibition rate (%) of guinea grass, Measured value.
Text: as §1, with “guinea grass (Panicum maximum” for “ivy-leaved morningglory (Ipomoea hederacea (L.)”, “mesotrione” for “hexazinone”, “guinea grass” for “ivy-leaved morningglory”, “4.” for “2.”

Experiment [8] has as its system persian speedwell (Veronica persica Poir.). Description: Test Example 8: pot soil treatment, growth inhibition of persian speedwell. The following applies: 21st day after treatment, read-out: Growth inhibition rate (%) of persian speedwell, Measured value.

One may read the inhibition as the share of the control response that was lost under treatment. `COc1cc(OC)nc(NC(=O)NS(=O)(=O)c2ncccc2C(F)(F)F)n1` [Flazasulfuron, flazasulfuron]: the inhibition at 30 g/ha in experiment [1] is 75%; in experiment [2], 15%; in experiment [3] (dose 30 g/ha), 0%; in experiment [4], 60%; in experiment [5], 0%; in experiment [6], 90%. The inhibition at 10 g/ha in experiment [3] (dose 10 g/ha) and in experiment [7] was 0% throughout. Further, the inhibition at 50 g/ha in experiment [3] (dose 50 g/ha) is 40%; in experiment [8], 20%.
